A word on the IC50: it is the concentration that gives 50% inhibition. The term Ki denotes a measure of affinity in units of concentration, obtained from inhibition or displacement.

Each structure is given as a SMILES string.

The text below walks through data of ChEMBL document CHEMBL1909046, “DrugMatrix in vitro pharmacology data”.

Data set [1] concerns the target Voltage-gated inwardly rectifying potassium channel KCNH2 (Homo sapiens, UniProt Q12809). The note with it: hek293. Note: in other assays of this panel Not Active means under 50% inhibition at 10 µM.
For data set [2], the target named is C-C chemokine receptor type 5 (Homo sapiens, UniProt P51681). It is filed as cell membranes, Membrane. To be noted: hek293. Note: in other assays of this panel Not Active means under 50% inhibition at 10 µM.
The next data set concerns the target T1, Progesterone receptor (Bos taurus, UniProt Q690N0).
T1 sequence (Q690N0 whole entry): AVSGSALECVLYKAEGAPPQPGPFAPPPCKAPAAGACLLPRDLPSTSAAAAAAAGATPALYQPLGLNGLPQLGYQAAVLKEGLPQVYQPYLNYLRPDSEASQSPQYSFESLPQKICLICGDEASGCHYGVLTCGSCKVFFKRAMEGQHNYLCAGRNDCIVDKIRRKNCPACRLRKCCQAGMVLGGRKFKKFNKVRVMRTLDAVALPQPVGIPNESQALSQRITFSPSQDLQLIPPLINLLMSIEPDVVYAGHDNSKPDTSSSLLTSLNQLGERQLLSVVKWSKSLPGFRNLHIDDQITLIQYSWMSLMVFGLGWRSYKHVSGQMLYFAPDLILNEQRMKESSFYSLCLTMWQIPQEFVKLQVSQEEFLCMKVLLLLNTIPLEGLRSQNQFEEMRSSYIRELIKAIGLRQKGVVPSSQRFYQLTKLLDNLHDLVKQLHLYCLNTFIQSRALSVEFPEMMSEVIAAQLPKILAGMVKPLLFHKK
Nature of the data set: DRUGMATRIX: Progesterone radioligand binding (ligand: [3H] R-5020). The format is tissue-based, Uterus. The note with it: Not Active = under 50% inhibition at 10 µM.

The target of the next data set is T2, D(4) dopamine receptor (Homo sapiens, UniProt P21917).
T2 sequence (P21917 whole entry): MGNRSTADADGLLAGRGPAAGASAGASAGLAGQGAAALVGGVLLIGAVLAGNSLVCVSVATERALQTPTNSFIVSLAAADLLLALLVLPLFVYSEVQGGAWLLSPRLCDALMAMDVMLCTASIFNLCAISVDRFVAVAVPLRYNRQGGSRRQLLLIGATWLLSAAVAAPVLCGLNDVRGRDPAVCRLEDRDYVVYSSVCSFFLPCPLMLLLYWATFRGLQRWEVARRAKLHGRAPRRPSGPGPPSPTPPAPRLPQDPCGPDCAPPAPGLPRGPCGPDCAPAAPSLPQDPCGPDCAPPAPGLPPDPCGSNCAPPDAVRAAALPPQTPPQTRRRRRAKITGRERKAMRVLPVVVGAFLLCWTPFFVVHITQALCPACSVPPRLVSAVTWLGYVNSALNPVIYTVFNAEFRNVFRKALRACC
Nature of the data set: DRUGMATRIX: Dopamine D4.2 radioligand binding (ligand: [3H] Spiperone). It is filed as cell membranes, CHO-K1, Membrane. The note with it: cho-k1; Not Active = under 50% inhibition at 10 µM.

The target of a further data set is Carbonic anhydrase 2 (Homo sapiens, UniProt P00918). Nature of the data set: DRUGMATRIX: Carbonic Anhydrase II enzyme inhibition (substrate: 4-Nitrophenyl acetate (4-NPA)). The format is tissue-based, Erythrocyte. To be noted: erythrocyte; Not Active = under 50% inhibition at 10 µM.
Data set [3] can be described thus: DRUGMATRIX: Platelet-Derived Growth Factor (PDGF) radioligand binding (ligand: [125I] PDGF). The format is cell-based. To be noted: nih3t3; Not Active = under 50% inhibition at 10 µM.
Data set [4] is described as follows: DRUGMATRIX: Phosphodiesterase PDE4 enzyme inhibition (substrate: [3H]cAMP + cAMP). The note with it: u-937, Not Active = under 50% inhibition at 10 µM.

Sequence of Voltage-gated inwardly rectifying potassium channel KCNH2 (Q12809 whole entry): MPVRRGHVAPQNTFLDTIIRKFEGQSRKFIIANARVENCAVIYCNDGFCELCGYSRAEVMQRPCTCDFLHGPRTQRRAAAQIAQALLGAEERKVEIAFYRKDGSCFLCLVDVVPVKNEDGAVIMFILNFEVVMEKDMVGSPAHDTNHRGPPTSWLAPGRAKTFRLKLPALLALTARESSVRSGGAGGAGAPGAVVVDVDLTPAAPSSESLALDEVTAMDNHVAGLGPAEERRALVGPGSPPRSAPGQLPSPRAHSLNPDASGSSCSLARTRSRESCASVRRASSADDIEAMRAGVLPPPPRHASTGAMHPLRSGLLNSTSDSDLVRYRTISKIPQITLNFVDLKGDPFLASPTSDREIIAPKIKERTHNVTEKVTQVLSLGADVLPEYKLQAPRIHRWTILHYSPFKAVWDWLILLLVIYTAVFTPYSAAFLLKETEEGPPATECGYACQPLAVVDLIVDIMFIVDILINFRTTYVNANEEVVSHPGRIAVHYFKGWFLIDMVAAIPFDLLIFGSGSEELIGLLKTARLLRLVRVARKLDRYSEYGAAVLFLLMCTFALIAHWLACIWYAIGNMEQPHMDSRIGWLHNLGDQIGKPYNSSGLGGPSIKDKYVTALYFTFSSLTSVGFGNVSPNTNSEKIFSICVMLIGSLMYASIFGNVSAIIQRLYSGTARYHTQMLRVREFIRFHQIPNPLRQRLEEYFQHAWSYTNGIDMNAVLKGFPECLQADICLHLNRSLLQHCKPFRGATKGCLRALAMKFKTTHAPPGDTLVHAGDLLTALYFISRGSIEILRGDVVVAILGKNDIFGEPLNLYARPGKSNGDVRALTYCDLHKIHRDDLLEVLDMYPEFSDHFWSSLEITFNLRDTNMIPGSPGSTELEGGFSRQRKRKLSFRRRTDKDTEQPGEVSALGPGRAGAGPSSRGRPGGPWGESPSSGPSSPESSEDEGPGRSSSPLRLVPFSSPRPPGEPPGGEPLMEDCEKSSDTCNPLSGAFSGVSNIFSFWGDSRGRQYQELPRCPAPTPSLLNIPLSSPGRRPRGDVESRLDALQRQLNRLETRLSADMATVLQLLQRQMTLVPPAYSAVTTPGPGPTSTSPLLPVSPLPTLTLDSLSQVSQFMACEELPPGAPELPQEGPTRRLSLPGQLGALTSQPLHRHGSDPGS
Sequence of C-C chemokine receptor type 5 (P51681 whole entry): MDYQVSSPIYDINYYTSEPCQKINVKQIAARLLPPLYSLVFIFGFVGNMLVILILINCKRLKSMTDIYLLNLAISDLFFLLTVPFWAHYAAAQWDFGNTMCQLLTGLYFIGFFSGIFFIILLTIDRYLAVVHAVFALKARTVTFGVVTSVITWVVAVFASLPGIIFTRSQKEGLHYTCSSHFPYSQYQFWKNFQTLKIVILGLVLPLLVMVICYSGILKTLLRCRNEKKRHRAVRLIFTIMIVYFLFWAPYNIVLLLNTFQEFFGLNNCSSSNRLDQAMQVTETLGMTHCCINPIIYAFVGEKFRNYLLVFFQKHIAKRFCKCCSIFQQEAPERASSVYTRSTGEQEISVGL

Regarding `O=c1c(-c2ccc(O)cc2)coc2cc(O)cc(O)c12` [GENISTEIN], the IC50 result (in data set [1]; in data set [2]; on Progesterone receptor; at D(4) dopamine receptor; on Carbonic anhydrase 2; in data set [3]) was “Not Active” in each case. Moreover, the IC50 in data set [4] (read-out: IC50) is 10900 nM. Besides, the Ki entry in data set [1] and in data set [3] was “Not Active” in each case.

Take `CCC1=C(C)CN(C(=O)NCCc2ccc(S(=O)(=O)NC(=O)N[C@H]3CC[C@H](C)CC3)cc2)C1=O` [GLIMEPIRIDE]: the IC50 entry (in data set [1]; in data set [2]; at Progesterone receptor; on D(4) dopamine receptor; at Carbonic anhydrase 2; in data set [3]) was “Not Active” each time. For the same compound, the IC50 result in data set [4] is “Not Active”. The Ki result in data set [1], in data set [3] and in data set [4] was “Not Active” each time.

As for `Nc1cc(-c2ccncc2)c[nH]c1=O` [INAMRINONE], the IC50 result (in data set [1]; in data set [2]; at Progesterone receptor; at D(4) dopamine receptor; against Carbonic anhydrase 2; in data set [3]) was “Not Active” each time. The IC50 result in data set [4] is listed as “Not Active”. Moreover, the Ki result in data set [1], in data set [3] and in data set [4] was “Not Active” throughout.

Take `CCCCC1=NC2(CCCC2)C(=O)N1Cc1ccc(-c2ccccc2-c2nnn[nH]2)cc1` [IRBESARTAN]: the IC50 entry (in data set [1]; in data set [2]; at Progesterone receptor; on D(4) dopamine receptor; against Carbonic anhydrase 2; in data set [3]) was “Not Active” in each case. Moreover, the IC50 entry in data set [4] is listed as “Not Active”. Besides, the Ki result in data set [1], in data set [3] and in data set [4] was “Not Active” each time.

On to `CN1CCC(=C2c3ccccc3CC(=O)c3sccc32)CC1` [KETOTIFEN], for which the IC50 entry (in data set [1]; in data set [2]; on Progesterone receptor; on D(4) dopamine receptor; at Carbonic anhydrase 2; in data set [3]) was “Not Active” each time. Also, in data set [4], the IC50 result is “Not Active”. Moreover, the Ki entry in data set [1], in data set [3] and in data set [4] was “Not Active” in each case.

With `N[C@@H](Cn1ccc(=O)c(O)c1)C(=O)O` [L-MIMOSINE], the IC50 entry (in data set [1]; in data set [2]; on Progesterone receptor; on D(4) dopamine receptor; against Carbonic anhydrase 2; in data set [3]) was “Not Active” in each case. In data set [4], the IC50 entry was “Not Active”. Moreover, the Ki result in data set [1], in data set [3] and in data set [4] was “Not Active” each time.

For the compound `C[N+](C)(C)C[C@H](O)CC(=O)[O-]` [LEVOCARNITINE], the IC50 entry (in data set [1]; in data set [2]; on Progesterone receptor; at D(4) dopamine receptor; on Carbonic anhydrase 2; in data set [3]) was “Not Active” each time. In addition, in data set [4], the IC50 result is given as “Not Active”. Also, the Ki result in data set [1], in data set [3] and in data set [4] was “Not Active” throughout.

Regarding `C[C@H]1COc2c(N3CCN(C)CC3)c(F)cc3c(=O)c(C(=O)O)cn1c23.C[C@H]1COc2c(N3CCN(C)CC3)c(F)cc3c(=O)c(C(=O)O)cn1c23.O` [LEVOFLOXACIN], the IC50 result (in data set [1]; in data set [2]; at Progesterone receptor; on D(4) dopamine receptor; against Carbonic anhydrase 2; in data set [3]) was “Not Active” throughout. In data set [4], the half-inhibitory concentration (IC50) entry was “Not Active”. Also, the Ki result in data set [1], in data set [3] and in data set [4] was “Not Active” in each case.

Regarding `CN1CCCC(CN2c3ccccc3Sc3ccccc32)C1` (stereo not given) [MEPAZINE], the IC50 result (in data set [1]; in data set [2]; on Progesterone receptor; at D(4) dopamine receptor; at Carbonic anhydrase 2; in data set [3]) was “Not Active” each time. Also, the IC50 result in data set [4] is reported as “Not Active”. Further, the Ki result in data set [1], in data set [3] and in data set [4] was “Not Active” each time.

As to `Cc1cccc(C)c1NC(=O)C1CCCCN1C` (stereo not given) [MEPIVACAINE], the IC50 result (in data set [1]; in data set [2]; on Progesterone receptor; on D(4) dopamine receptor; at Carbonic anhydrase 2; in data set [3]) was “Not Active” throughout. The IC50 result in data set [4] is “Not Active”. Besides, the Ki result in data set [1], in data set [3] and in data set [4] was “Not Active” each time.

On to `CN(C)C(=N)NC(=N)N` [METFORMIN], for which the half-inhibitory concentration (IC50) result (in data set [1]; in data set [2]; at Progesterone receptor; at D(4) dopamine receptor; on Carbonic anhydrase 2; in data set [3]) was “Not Active” in each case. Besides, the IC50 result in data set [4] is “Not Active”. Also, the Ki entry in data set [1], in data set [3] and in data set [4] was “Not Active” each time.

With `CC(C)(C)NCC(O)COc1cccc2c1CC(O)C(O)C2` (stereo not given) [NADOLOL], the IC50 entry (in data set [1]; in data set [2]; on Progesterone receptor; on D(4) dopamine receptor; against Carbonic anhydrase 2; in data set [3]) was “Not Active” throughout. Besides, the IC50 result in data set [4] is reported as “Not Active”. The Ki result in data set [1], in data set [3] and in data set [4] was “Not Active” each time.

For `C[C@]12CC[C@H]3[C@@H](CCC4=CC(=O)CC[C@@H]43)[C@@H]1CC[C@@H]2O` [NANDROLONE], the IC50 result was “Not Active” in data set [1]; “Not Active” in data set [2]; 172 nM on Progesterone receptor (read-out: IC50); “Not Active” on D(4) dopamine receptor; “Not Active” on Carbonic anhydrase 2; “Not Active” in data set [3]. Moreover, in data set [4], the IC50 entry is given as “Not Active”. Further, the Ki result in data set [1] is “Not Active”; at Progesterone receptor (read-out: Ki) it was 22.4 nM; in data set [3], “Not Active”; in data set [4] it was “Not Active”.

Take `C[C@@H]1C/C=C/C=C/C=C/C=C/[C@H](O[C@@H]2O[C@H](C)[C@@H](O)[C@H](N)[C@@H]2O)C[C@@H]2O[C@](O)(C[C@@H](O)C[C@H]3O[C@@H]3/C=C/C(=O)O1)C[C@H](O)[C@H]2C(=O)O` [NATAMYCIN]: the IC50 entry (in data set [1]; in data set [2]; on Progesterone receptor; on D(4) dopamine receptor; against Carbonic anhydrase 2; in data set [3]) was “Not Active” each time. In data set [4], the IC50 result was “Not Active”. Moreover, the Ki result in data set [1], in data set [3] and in data set [4] was “Not Active” each time.

With `CN(C)C(=O)Oc1cccc([N+](C)(C)C)c1.[Br-]` [NEOSTIGMINE BROMIDE], the IC50 result (in data set [1]; in data set [2]; on Progesterone receptor; at D(4) dopamine receptor; at Carbonic anhydrase 2; in data set [3]) was “Not Active” each time. The IC50 result in data set [4] is “Not Active”. For the same compound, the Ki result in data set [1], in data set [3] and in data set [4] was “Not Active” in each case.

With `NC(=O)c1cccnc1` [NIACINAMIDE], the IC50 entry (in data set [1]; in data set [2]; on Progesterone receptor; at D(4) dopamine receptor; against Carbonic anhydrase 2; in data set [3]) was “Not Active” each time. The half-inhibitory concentration (IC50) entry in data set [4] was “Not Active”. The Ki entry in data set [1], in data set [3] and in data set [4] was “Not Active” in each case.

Turning to `CS(=O)(=O)Nc1ccc([N+](=O)[O-])cc1Oc1ccccc1` [NIMESULIDE], the IC50 entry (in data set [1]; in data set [2]; at Progesterone receptor; at D(4) dopamine receptor; against Carbonic anhydrase 2; in data set [3]) was “Not Active” each time. Besides, the IC50 result in data set [4] is reported as “Not Active”. Besides, the Ki entry in data set [1], in data set [3] and in data set [4] was “Not Active” each time.
